Data on twelve compounds can be found in US20120252803A1, “COMPOSITION AND METHOD FOR CONTROLLING ARTHROPOD PESTS” (SUMITOMO CHEMICAL COMPANY, LIMITED, priority 2009, published 2012).

SMILES strings stand for the structures.

For assay [1], the system named is Common cutworm (Spodoptela litura). The assay can be described thus: Test Example 1: pesticidal effect of artificial diet irrigation treatment on Common cutworm. Conditions: artificial diet irrigated with 2 mL test solution, fourth instar larvae, after 6 days. It counts as in vivo.
For assay [2] the test system is unchanged. The assay can be described thus: Test Example 2: pesticidal effect of artificial diet irrigation treatment on Common cutworm. It counts as in vivo. Conditions: artificial diet irrigated with 2 mL test solution, fourth instar larvae, after 6 days.
Setting [3] is: composition of the compound and esfenvalerate, Table 43.
[4] abbreviates: composition of the compound and fenpropathrin, Table 44.
The mark [5] stands for this setting: composition of the compound and esfenvalerate, Table 45.
The mark [6] stands for this setting: composition of the compound and fenpropathrin, Table 46.

As for `FC(F)(F)c1ccc2oc(-c3ccncc3Cl)nc2c1` [Compound 18, 2-(3-chloropyridin-4-yl)-5-(trifluoromethyl)benzoxazole], the “pesticidal efficacy against Common cutworm (Spodoptela litura)” value (“pesticidal efficacy” for short) in assay [1] (setting [3]) and in assay [1] (setting [4]) was “high pesticidal efficacy” throughout.
For the compound `FC(F)(F)COc1cnccc1-c1nc2cc(C(F)(F)F)ccc2o1` [Compound 39, 2-[3-(2,2,2-trifluoroethyl)oxypyridin-4-yl]-5-(trifluoromethyl)benzoxazole], the “pesticidal efficacy” value in assay [2] (setting [5]) and in assay [2] (setting [6]) was “high pesticidal efficacy” each time.
As to `CC(C)Oc1cnccc1-c1nc2cc(C(F)(F)F)ccc2o1` [Compound 70, 2-(3-isopropoxypyridin-4-yl)-5-(trifluoromethyl)benzoxazole], the “pesticidal efficacy” value in assay [1] (setting [3]) and in assay [1] (setting [4]) was “high pesticidal efficacy” in each case.
As for `FC(F)(F)Sc1ccc2oc(-c3ccncc3Cl)nc2c1` [Compound 77, 2-(3-chloropyridin-4-yl)-5-(trifluoromethylthio)benzoxazole], the “pesticidal efficacy” value in assay [1] (setting [3]) and in assay [1] (setting [4]) was “high pesticidal efficacy” throughout.
Regarding `CCc1cnccc1-c1nc2cc(OC(F)(F)F)ccc2o1` [Compound 109, 2-(3-ethylpyridin-4-yl)-5-(trifluoromethoxy)benzoxazole], the “pesticidal efficacy” value in assay [1] (setting [3]) and in assay [1] (setting [4]) was “high pesticidal efficacy” each time.
Consider `CC(C)COc1cnccc1-c1nc2cc(C(F)(F)F)ccc2o1` [Compound 116, 2-(3-isobutoxypyridin-4-yl)-5-(trifluoromethyl)benzoxazole], for which the “pesticidal efficacy” value in assay [2] (setting [5]) and in assay [2] (setting [6]) was “high pesticidal efficacy” throughout.
On to `CC(C)(C)COc1cnccc1-c1nc2cc(C(F)(F)F)ccc2o1` [Compound 117, 2-[3-(2,2-dimethylpropoxy)pyridin-4-yl]-5-(trifluoromethyl)benzoxazole], for which the “pesticidal efficacy” value in assay [2] (setting [5]) and in assay [2] (setting [6]) was “high pesticidal efficacy” each time.
For `FC(F)(F)c1ccc2oc(-c3ccncc3-c3cccnc3)nc2c1` [Compound 128, 4-(5-trifluoromethyl-benzoxazole-2-yl)-[3,3′]bipyridinyl], the “pesticidal efficacy” value in assay [1] (setting [3]) and in assay [1] (setting [4]) was “high pesticidal efficacy” throughout.
Consider `FC(F)(F)c1cnc2oc(-c3ccncc3Cl)nc2c1` [Compound 139, 2-(3-chloropyridin-4-yl)-6-(trifluoromethyl)oxazolo[5,4-b]pyridine], for which the “pesticidal efficacy” value in assay [1] (setting [3]) and in assay [1] (setting [4]) was “high pesticidal efficacy” throughout.
With `CCc1cnccc1-c1nc2cc(C(F)(F)F)cnc2o1` [Compound 143, 2-(3-ethylpyridin-4-yl)-6-(trifluoromethyl)oxazolo[5,4-b]pyridine], the “pesticidal efficacy” value in assay [1] (setting [3]) and in assay [1] (setting [4]) was “high pesticidal efficacy” throughout.
Consider `CSc1cnccc1-c1nc2cc(C(F)(F)F)cnc2o1` [Compound 146, 2-(3-methylthiopyridin-4-yl)-6-(trifluoromethyl)oxazolo[5,4-b]pyridine], for which the “pesticidal efficacy” value in assay [1] (setting [3]) and in assay [1] (setting [4]) was “high pesticidal efficacy” each time.
For the compound `FC(F)(F)COc1cnccc1-c1nc2cc(C(F)(F)F)cnc2o1` [Compound 163], the “pesticidal efficacy” value in assay [2] (setting [5]) and in assay [2] (setting [6]) was “high pesticidal efficacy” throughout.
